This is an account of results in PubChem BioAssay AID588618 (The Scripps Research Institute Molecular Screening Center, 2011).

Structures are written as SMILES.

Chain of Early growth response protein 1 (Homo sapiens) (P18146 whole entry, looked up): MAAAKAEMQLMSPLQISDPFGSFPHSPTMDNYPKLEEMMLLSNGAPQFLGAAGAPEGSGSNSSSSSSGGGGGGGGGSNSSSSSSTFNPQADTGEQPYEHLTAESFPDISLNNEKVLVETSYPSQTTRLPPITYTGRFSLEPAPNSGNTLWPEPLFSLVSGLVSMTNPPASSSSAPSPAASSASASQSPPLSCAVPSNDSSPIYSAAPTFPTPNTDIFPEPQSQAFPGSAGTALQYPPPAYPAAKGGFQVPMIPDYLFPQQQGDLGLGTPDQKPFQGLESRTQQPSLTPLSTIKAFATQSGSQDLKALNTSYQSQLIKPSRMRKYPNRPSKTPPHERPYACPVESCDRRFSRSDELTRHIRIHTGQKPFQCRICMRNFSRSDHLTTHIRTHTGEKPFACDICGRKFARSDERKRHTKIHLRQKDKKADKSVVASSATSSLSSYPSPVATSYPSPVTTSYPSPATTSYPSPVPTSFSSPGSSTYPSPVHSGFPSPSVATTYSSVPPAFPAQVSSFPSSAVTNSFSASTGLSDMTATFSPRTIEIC

The experiment concerns the target Early growth response protein 1 (Homo sapiens) (UniProt P18146). In words: EGR1 protein level change in DLD-1 cells, late-stage follow-up, counter-screen for KLF5 inhibitor project, DLD1 cells, chemiluminescent western blot, powder samples (AID 588618). Particulars: 24 h, at 10 µM, hits give high values. A general note: Counterscreens check selectivity or assay interference.
For orientation: inhibition means the share of the control response that was lost under treatment. As to `CN(C(=O)CNC(=O)/C=C/c1cccc(Cl)c1)C1CCS(=O)(=O)CC1`, the inhibition was 21.1%.

As to `CN(C(=O)CNC(=O)/C=C/c1cccc(Cl)c1)C1CCS(=O)(=O)C1` (stereo not drawn), the inhibition was 14.3%.

As to `CN(C(=O)COC(=O)/C=C/c1cccc([N+](=O)[O-])c1)C1CCS(=O)(=O)C1` (stereo not drawn), the inhibition is 19.4%.
